Reference: PMC10698194 (Nature Communications, 2023)
Bridge positions count the residues as written; N and C are the ends. Square brackets hold non-standard residues; d marks the D form. Peptide text beside a SMILES is read from it. * marks the point of attachment. X1 = C=CCN1CC[C@]23c4c5ccc(O)c4O[C@H]2[C@H](N*)CC[C@@]3(O)[C@H]1C5

Target: T1, human KOR K227A (Homo sapiens, UniProt P41145, K227A)
T1 construct: FLAG; expressed in transfected cells; host or cells: HEK293 / HEK293T, transient
Assay: BRET β-arrestin-2 biosensor assay
Assay type: cell-based

T1 sequence (P41145 whole entry K227A): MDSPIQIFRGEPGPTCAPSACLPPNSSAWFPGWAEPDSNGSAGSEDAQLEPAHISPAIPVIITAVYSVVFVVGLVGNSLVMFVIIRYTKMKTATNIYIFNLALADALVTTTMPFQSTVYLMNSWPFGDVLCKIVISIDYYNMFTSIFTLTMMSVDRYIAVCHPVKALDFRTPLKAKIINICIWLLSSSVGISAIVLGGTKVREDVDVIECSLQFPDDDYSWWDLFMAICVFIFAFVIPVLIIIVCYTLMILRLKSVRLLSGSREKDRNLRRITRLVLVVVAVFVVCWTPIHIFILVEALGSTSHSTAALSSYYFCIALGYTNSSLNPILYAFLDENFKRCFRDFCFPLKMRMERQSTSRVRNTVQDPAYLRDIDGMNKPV

C=CCN1CC[C@]23c4c5ccc(O)c4O[C@H]2[C@H](NC(=O)[C@@H](Cc2ccccc2)NC(=O)[C@@H](NC(=O)[C@@H]2CSCC(=O)N[C@@H](Cc4ccc(O)cc4)C(=O)N[C@@H](C)C(=O)N[C@H](Cc4ccc(O)cc4)C(=O)N[C@@H]([C@@H](C)O)C(=O)N[C@@H]([C@@H](C)O)C(=O)N2)[C@@H](C)O)CC[C@@]3(O)[C@H]1C5 [DNCP-β-NalA(1)] ({CH2CO}-YA[dY]TTCT[dF]-X1; thioether N-6)
Emax: 16.9 ± 2.26%
